Experimental data published in US20210161855A1, “5-LIPOXYGENASE ANTAGONISTS” (INSTITUTO DE MEDICINA MOLECULAR JOÃO LOBO ANTUNES, priority 2017, published 2021).

What was measured:
HEL-GFP cells = assay: Xenograft model of human AML, HEL-GFP cells in NSG mice; format: in vivo
Procedure: The xenograft model of human AML used relies in the intra-bone marrow injection of 5×10^5 HEL-GFP cells into the right tibia of previously irradiated (200 rad) NSG mice. Upon tumor trigger in the blood mouse are randomly assigned for treatment with 1 (50 mg/kg intra-peritoneal) or vehicle.

[1] = target: T1, 15-lipoxygenase-2 (15-LO-2) (Homo sapiens, UniProt O15296); assay: 15-LO-2 inhibition assay, Method A (Cerep); format: biochemical
T1 sequence (O15296 1-676): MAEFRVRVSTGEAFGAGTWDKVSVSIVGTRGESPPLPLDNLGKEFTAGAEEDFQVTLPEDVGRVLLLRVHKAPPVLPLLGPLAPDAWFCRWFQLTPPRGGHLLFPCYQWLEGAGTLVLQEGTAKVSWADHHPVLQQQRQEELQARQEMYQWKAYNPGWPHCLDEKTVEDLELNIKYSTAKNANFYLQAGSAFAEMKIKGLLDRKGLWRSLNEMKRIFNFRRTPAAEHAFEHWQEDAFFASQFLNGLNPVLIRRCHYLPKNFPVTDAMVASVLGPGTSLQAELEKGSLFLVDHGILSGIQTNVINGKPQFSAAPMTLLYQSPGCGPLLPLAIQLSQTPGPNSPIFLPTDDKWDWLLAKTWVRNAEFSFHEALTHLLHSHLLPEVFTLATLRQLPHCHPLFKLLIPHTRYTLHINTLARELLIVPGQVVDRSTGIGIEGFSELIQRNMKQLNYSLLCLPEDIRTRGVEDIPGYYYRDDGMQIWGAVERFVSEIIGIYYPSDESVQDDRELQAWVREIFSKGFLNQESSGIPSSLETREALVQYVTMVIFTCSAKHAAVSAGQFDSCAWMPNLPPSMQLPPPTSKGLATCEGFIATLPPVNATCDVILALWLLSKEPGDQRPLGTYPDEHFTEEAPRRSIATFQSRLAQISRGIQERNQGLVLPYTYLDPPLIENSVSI
Procedure: Method A: 5-Lipoxygenase (5-LO), 12-lipoxygenase (12-LO) and 15-lipoxygenase-2 (15-LO-2) inhibition assays were performed at Cerep, SA (Celle l'Evescault, France) on a fee-for-service basis (Ref 0772^36, 0883^37 and 0893^38, respectively), as described in Table 1.

SMILES: CC1(C)CCC2=C(O1)c1ccccc1C(=O)C2=O [Compound 1, 3,4-dihydro-2,2-dimethyl-2H-naphtho[1,2-b]pyran-5,6-dione]
- Overall survival (HEL-GFP cells; 50 mg/kg intra-peritoneal): significantly increased overall survival
- Tumour burden in the blood (HEL-GFP cells; 50 mg/kg intra-peritoneal, day 9): tendency for lower burden
- Tumour burden in organs (liver, spleen and lung) (HEL-GFP cells; longest-living treated mouse, sacrificed at day 30, versus non-treated controls): lower tumour burden in all the analysed organs
- inhibition at 5 µM [1]: -13%
